System: skin of the forearm
Experiment: in vivo tanning test: skin colour read with Minolta CR 200 Chromameter after UVA irradiation
Set-up: species or system volunteers
Conditions: for Percentage increase WHITE (-L*) / Percentage increase RED (a*) / Percentage increase YELLOW (B*): 15 volunteers, forearm skin, UVA 10 minutes every 24 hours, irradiated untreated skin = 100%
Procedure: In order to evaluate the effectiveness of the group of components in question in extending the formation of a tan, an in vivo test with a cream containing tyrosine conjugated with 0.750 oleic acid was carried out in vivo on 15 volunteers over a period of 14 days. Three adjacent zones on the skin of the forearm of each volunteer were identified. The first irradiated zone was treated with an emulsion containing only a sun filter (placebo), the second with an emulsion containing both the filter and the lipophilic tyrosine, the third was not treated with any emulsion (control) . The three zones of the skin were irradiated simultaneously with UVA light for 10 minutes every 24 hours (1 hour after application of the creams) for two weeks. The skin colour was read instrumentally using the Minolta® CR 200 Chromameter instrument, a device for measuring the colour of surfaces which is capable of analysing the strength of the colouration using a Xenon lamp, subdividing it into three different parameters (corresponding to the white component (-L*), the red component (a*) and the yellow component (B*)). Each reading was made 24 hours after each exposure to UVA light, in order to minimise instantaneous pigmentation phenomena. The average percentage increase in the colour of the skin treated with lipophilic tyrosine in comparison with the portion of the skin treated with placebo was calculated, assigning a value of 100% to the strength of the colour of the irradiated skin in the absence of emulsion.
Values of the average percentage increase in the white, red and yellow parameters found are shown in the following table: Percentage increase in the 3 parameters

For tyrosine conjugated with oleic acid, the “Percentage increase WHITE (-L*)” value (1st day, emulsion with filter and lipophilic tyrosine vs placebo (filter only), reading 24 hours after exposure) was -70.20%, the “Percentage increase RED (a*)” value (1st day, vs placebo) was 66.60% and the “Percentage increase RED (a*)” value (6th day, vs placebo) was 73.16%. The “Percentage increase WHITE (-L*)” value (6th day, vs placebo) was -79.00%, the “Percentage increase YELLOW (B*)” value (6th day, vs placebo) was 62.26% and the “Percentage increase RED (a*)” value (Mean after 14 days, vs placebo) was 73.50%. For the same substance, the “Percentage increase WHITE (-L*)” value (Mean after 14 days, vs placebo) was -69.00%, the “Percentage increase YELLOW (B*)” value (Mean after 14 days, vs placebo) was 65.00% and the “decrease in white with simultaneous increase in the red and yellow components over time” value (treated skin in comparison with skin treated with placebo) was “significantly greater”.
